Measured values as given in PMC9281089 (Journal of Translational Medicine, 2022).
pEC50: −log10 of the molar value. Several values for one entry are separate records, joined by “and”; a condition that tells them apart may be missing. Identical values can stand only once. Counter-ions that a name gives are not always drawn.

Assays:
[1] = target: SARS-CoV-2 S-protein RBD / ACE2 interaction (UniProt P0DTC2+Q9BYF1); assay: biochemical; design: species or system SARS-CoV-2 / human; settings: EC50 (HTRF), inhibition of binding of S-RBD to ACE2
[2] = tested on: cells

## N=C(N)c1ccc2cc(OC(=O)c3ccc(N=C(N)N)cc3)ccc2c1 [Nafamostat mesylate, reference compound]
[1]
  pEC50: 4.95

## COc1ccc2c3ccnc4ccc(=O)n(c2c1)c43 [TS-984, 9-Methoxycanthin-6-one]
[1]
  pEC50: 4.44
[2]; compared with tannic acid and nafamostat mesilate
  cytotoxicity (comparative): lower cytotoxicity

## O=C1c2ccccc2C(=O)c2ccccc21 [TS-1276, anthraquinone]
[1]
  pEC50: 4.25 and 4.79

## O=C(OC[C@H]1O[C@@H](OC(=O)c2cc(O)c(O)c(OC(=O)c3cc(O)c(O)c(O)c3)c2)[C@H](OC(=O)c2cc(O)c(O)c(OC(=O)c3cc(O)c(O)c(O)c3)c2)[C@@H](OC(=O)c2cc(O)c(O)c(OC(=O)c3cc(O)c(O)c(O)c3)c2)[C@@H]1OC(=O)c1cc(O)c(O)c(OC(=O)c2cc(O)c(O)c(O)c2)c1)c1cc(O)c(O)c(OC(=O)c2cc(O)c(O)c(O)c2)c1 [tannic acid, reference compound]
[2]; at a high concentration (> 30 µM)
  cytotoxicity to cells: strong cytotoxicity
[2]; when the effective concentration is applied
  cytotoxicity at effective concentration: higher cytotoxicity that leads to cell death
